Results published in ChEMBL document CHEMBL1159205, “Fomitellic acids, triterpenoid inhibitors of eukaryotic DNA polymerases from a basidiomycete, Fomitella fraxinea” (J Nat Prod, 1998).
Converted amounts (≈) assume the structure as drawn.

These compounds were tested against DNA polymerase beta (Rattus norvegicus) (UniProt P06766) (assay: Inhibition of rat DNA polymerase beta assessed as incorporation of [3H]dTTP).

Structure (SMILES) | MIC [µM]
CC(C)=CCC[C@@H](C)[C@H]1CC[C@@]2(C)C3=C([C@H](O)C[C@]12C)[C@]1(C)[C@@H](CC3=O)[C@@](C)(C(=O)O)[C@@H](O)C[C@H]1O | 125 (≈ 62.8 µg/mL)
CO[C@@H]1C[C@]2(C)[C@@H]([C@H](C)CCC=C(C)C)CC[C@@]2(C)C2=C1[C@]1(C)[C@@H](CC2=O)[C@@](C)(C(=O)O)[C@@H](O)C[C@H]1O | 130 (≈ 67.2 µg/mL)
CC(C)=CCC[C@@H](C)[C@H]1CC[C@@]2(C)C3=C(CC[C@]12C)[C@]1(C)[C@@H](CC3=O)[C@@](C)(C(=O)O)[C@H](O)C[C@H]1O | 95 (≈ 46.2 µg/mL)
CC(C)=CCC[C@@H](C)[C@H]1CC[C@@]2(C)C3=C(CC[C@]12C)[C@]1(C)[C@@H](CC3=O)[C@@](C)(C(=O)O)[C@@H](O)C[C@H]1O | 90 (≈ 43.8 µg/mL)

Organism: Bos taurus
Experiment: Inhibition of calf DNA polymerase alpha assessed as incorporation of [3H]dTTP

Structure (SMILES) | MIC [µM]
CC(C)=CCC[C@@H](C)[C@H]1CC[C@@]2(C)C3=C([C@H](O)C[C@]12C)[C@]1(C)[C@@H](CC3=O)[C@@](C)(C(=O)O)[C@@H](O)C[C@H]1O | 75 (≈ 37.7 µg/mL)
CO[C@@H]1C[C@]2(C)[C@@H]([C@H](C)CCC=C(C)C)CC[C@@]2(C)C2=C1[C@]1(C)[C@@H](CC2=O)[C@@](C)(C(=O)O)[C@@H](O)C[C@H]1O | 75 (≈ 38.8 µg/mL)
CC(C)=CCC[C@@H](C)[C@H]1CC[C@@]2(C)C3=C(CC[C@]12C)[C@]1(C)[C@@H](CC3=O)[C@@](C)(C(=O)O)[C@H](O)C[C@H]1O | 35 (≈ 17 µg/mL)
CC(C)=CCC[C@@H](C)[C@H]1CC[C@@]2(C)C3=C(CC[C@]12C)[C@]1(C)[C@@H](CC3=O)[C@@](C)(C(=O)O)[C@@H](O)C[C@H]1O | 30 (≈ 14.6 µg/mL)
